Earlier results, collected in publication PMC10866072, “Design, synthesis, molecular modelling and biological evaluation of novel 6-amino-5-cyano-2-thiopyrimidine derivatives as potent anticancer agents against leukemia and apoptotic inducers” (Journal of Enzyme Inhibition and Medicinal Chemistry, 2024).

What was measured:
Settings in all cases: cited from earlier work
[1] = tested on: HeLa; design: method as in PMID 31525523
[2] = tested on: A549; design: method as in PMID 31525523
[3] = tested on: MGC-803 cell line; design: method as in PMID 27771599
[4] = tested on: GES1; design: method as in PMID 27771599

Row | Compound | IC50 [1] [nM] | IC50 [2] [nM] | IC50 [3] [nM] | IC50 [4] [nM]
1 | COc1cc(C2=NC3N=C(C)C(C(C)=O)C(c4ccc([N+](=O)[O-])cc4)N3N2)cc(OC)c1OC (stereo not shown) [XXI] | 750 | 1020 | – | –
2 | C/C(=N\Nc1nc(Sc2ccccc2)nc2c1nnn2-c1ccccc1)c1ccccc1O [XXII] | – | – | 870 | 56200
